From PubChem BioAssay AID330 (DTP/NCI, 2004)
Where “and” joins values, the source holds several entries; their conditions need not be identical. Identical values can stand only once. Toxic doses and inconclusive results are not listed.

Test system: P388 leukemia ip, CD2F1 mice, survival T/C
Experiment: NCI In Vivo Anticancer Drug Screen. Data for tumor model P388 Leukemia (intraperitoneal) in CD2F1 (CDF1) mice
Settings: endpoint: median survival time, higher = longer survival
In short: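 Mice carrying the transplanted tumor received test compound or vehicle. Survival was recorded in each group, and the value is the treated-group measurement divided by that of the vehicle-treated control group.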

**Q.** What does the source list for `COc1cc(C=Nc2cc(Br)cc(Br)c2)ccc1N(CCCl)CCCl`?
**A.** T/C (dose: 0.44 mg/kg/injection, schedule: Q01DX009 (ip), vehicle: saline with Tween-80): 120 % of control; T/C (dose: 0.66 mg/kg/injection, schedule: Q01DX009 (ip), vehicle: saline with Tween-80): 105 % of control; T/C (dose: 1.5 mg/kg/injection, schedule: Q01DX009 (ip), vehicle: saline with Tween-80): 170 % of control; T/C (dose: 2.25 mg/kg/injection, schedule: Q04DX003 (ip), vehicle: other): 111 % of control; T/C (dose: 2.5 mg/kg/injection, schedule: Q01DX009 (ip), vehicle: saline with Tween-80): 165 % of control; T/C (dose: 5.0 mg/kg/injection, schedule: Q01DX009 (ip), vehicle: saline with Tween-80): 170 % of control; T/C (dose: 9.0 mg/kg/injection, schedule: Q04DX003 (ip), vehicle: other): 165 % of control; T/C (dose: 10.0 mg/kg/injection, schedule: Q01DX009 (ip), vehicle: saline with Tween-80): 110 % of control; T/C (dose: 18.0 mg/kg/injection, schedule: Q04DX003 (ip), vehicle: other): 223 % of control

**Q.** `CCSC(=S)Nc1nc2ccc(C)cc2s1` was tested. Which T/C (dose: 6.25 mg/kg/injection, schedule: Q01DX009 (ip), vehicle: Klucel (hydroxypropylcellulose) (HPC)) did it give?
**A.** 107 % of control

**Q.** What about the T/C (dose: 12.5 mg/kg/injection, schedule: Q01DX009 (ip), vehicle: Klucel (hydroxypropylcellulose) (HPC)) of the same compound?
**A.** 89 % of control

**Q.** What about the T/C (dose: 25.0 mg/kg/injection, schedule: Q01DX009 (ip), vehicle: Klucel (hydroxypropylcellulose) (HPC)) of the same compound?
**A.** 103 % of control

**Q.** What does the source list for `Cc1c(Cc2ccccc2)[n+](=O)c2ccccc2n1[O-]`?
**A.** T/C (dose: 50.0 mg/kg/injection, schedule: Q01DX005 (ip), vehicle: Klucel (hydroxypropylcellulose) (HPC)): 92 % of control; T/C (dose: 100.0 mg/kg/injection, schedule: Q01DX005 (ip), vehicle: Klucel (hydroxypropylcellulose) (HPC)): 95 % of control; T/C (dose: 100.0 mg/kg/injection, schedule: Q04DX003 (ip), vehicle: Klucel (hydroxypropylcellulose) (HPC)): 100 % of control; T/C (dose: 100.0 mg/kg/injection, schedule: Q04DX003 (ip), vehicle: saline with Tween-80): 101 % of control; T/C (dose: 200.0 mg/kg/injection, schedule: Q01DX005 (ip), vehicle: Klucel (hydroxypropylcellulose) (HPC)): 99 % of control; T/C (dose: 200.0 mg/kg/injection, schedule: Q04DX003 (ip), vehicle: Klucel (hydroxypropylcellulose) (HPC)): 98 % of control; T/C (dose: 200.0 mg/kg/injection, schedule: Q04DX003 (ip), vehicle: saline with Tween-80): 110 % of control; T/C (dose: 400.0 mg/kg/injection, schedule: Q01DX005 (ip), vehicle: Klucel (hydroxypropylcellulose) (HPC)): 94 % of control; T/C (dose: 400.0 mg/kg/injection, schedule: Q04DX003 (ip), vehicle: Klucel (hydroxypropylcellulose) (HPC)): 104 % of control; T/C (dose: 400.0 mg/kg/injection, schedule: Q04DX003 (ip), vehicle: saline with Tween-80): 118 % of control

**Q.** How did the T/C (dose: 25.0 mg/kg/injection, schedule: Q01DX005 (ip), vehicle: distilled water + Tween-80) turn out when `Cc1ccc(-c2ccc(Nc3c4ccccc4nc4ccccc34)cc2)cn1` was run?
**A.** 106 % of control

**Q.** What about the T/C (dose: 50.0 mg/kg/injection, schedule: Q01DX005 (ip), vehicle: distilled water + Tween-80) of the same compound?
**A.** 117 % of control

**Q.** What about the T/C (dose: 100.0 mg/kg/injection, schedule: Q01DX005 (ip), vehicle: distilled water + Tween-80) of the same compound?
**A.** 151 % of control

**Q.** What about the T/C (dose: 200.0 mg/kg/injection, schedule: Q01DX005 (ip), vehicle: distilled water + Tween-80) of the same compound?
**A.** 193 % of control

**Q.** What does the source list for `COc1cc(=O)cc2n(-c3cc(OC)c(O)c(OC)c3)c3ccccc3nc1-2`?
**A.** T/C (dose: 12.5 mg/kg/injection, schedule: Q01DX009 (ip), vehicle: saline): 100 % of control; T/C (dose: 25.0 mg/kg/injection, schedule: Q01DX009 (ip), vehicle: saline): 104 % of control; T/C (dose: 50.0 mg/kg/injection, schedule: Q01DX009 (ip), vehicle: saline): 102 % of control and 88 % of control; T/C (dose: 200.0 mg/kg/injection, schedule: Q01DX009 (ip), vehicle: saline): 98 % of control

**Q.** `CSc1nc2[nH]c(=O)[nH]c(=O)c2[nH]1` was tested. Which T/C (dose: 50.0 mg/kg/injection, schedule: Q01DX005 (ip), vehicle: saline with Tween-80) did it give?
**A.** 95 % of control

**Q.** What about the T/C (dose: 100.0 mg/kg/injection, schedule: Q01DX005 (ip), vehicle: saline with Tween-80) of the same compound?
**A.** 94 % of control

**Q.** What about the T/C (dose: 200.0 mg/kg/injection, schedule: Q01DX005 (ip), vehicle: saline with Tween-80) of the same compound?
**A.** 108 % of control

**Q.** Which T/C (dose: 6.25 mg/kg/injection, schedule: Q04DX002 (ip), vehicle: saline with Tween-80) does the source give for `CCn1c2nc(=O)n(C)c(=O)c-2[n+]([O-])c2cc(Br)ccc21` here?
**A.** 100 % of control

**Q.** What about the T/C (dose: 12.5 mg/kg/injection, schedule: Q04DX002 (ip), vehicle: saline with Tween-80) of the same compound?
**A.** 96 % of control

**Q.** And the T/C (dose: 25.0 mg/kg/injection, schedule: Q04DX002 (ip), vehicle: saline with Tween-80)?
**A.** 89 % of control and 92 % of control

**Q.** How did the T/C (dose: 50.0 mg/kg/injection, schedule: Q01DX009 (ip), vehicle: Klucel (hydroxypropylcellulose) (HPC)) turn out when `Cn1c(-c2ccccc2)c(-c2ccccc2)c(=O)c(-c2ccccc2)c1-c1ccccc1` was run?
**A.** 92 % of control

**Q.** And the T/C (dose: 100.0 mg/kg/injection, schedule: Q01DX009 (ip), vehicle: Klucel (hydroxypropylcellulose) (HPC))?
**A.** 92 % of control

**Q.** What about the T/C (dose: 200.0 mg/kg/injection, schedule: Q01DX009 (ip), vehicle: Klucel (hydroxypropylcellulose) (HPC)) of the same compound?
**A.** 91 % of control

**Q.** What does the source list for `O=C(NC1CCCCC1)NS(=O)(=O)c1ccc(CCNC(=O)c2cccc3c2OCC3)cc1`?
**A.** T/C (dose: 50.0 mg/kg/injection, schedule: Q01DX009 (ip), vehicle: saline with Tween-80): 100 % of control; T/C (dose: 100.0 mg/kg/injection, schedule: Q01DX009 (ip), vehicle: saline with Tween-80): 99 % of control; T/C (dose: 200.0 mg/kg/injection, schedule: Q01DX009 (ip), vehicle: saline with Tween-80): 98 % of control

**Q.** `O=C(O)/C=C/C(=O)NNc1nc2ccccc2s1` was tested. Which T/C (dose: 60.0 mg/kg/injection, schedule: Q01DX005 (ip), vehicle: Klucel (hydroxypropylcellulose) (HPC)) did it give?
**A.** 97 % of control

**Q.** And the T/C (dose: 120.0 mg/kg/injection, schedule: Q01DX005 (ip), vehicle: Klucel (hydroxypropylcellulose) (HPC))?
**A.** 96 % of control

**Q.** And the T/C (dose: 240.0 mg/kg/injection, schedule: Q01DX005 (ip), vehicle: Klucel (hydroxypropylcellulose) (HPC))?
**A.** 89 % of control
